# Measurements as given in article PMC10907298 (Nature chemical biology, 2023).
# Numbering of substitutions follows the chain as printed. Values joined by “and” are separate entries in the source; they are usually repeats but may differ in a detail not shown here. Equal entries are not always repeated. “Also recorded” adds a separate entry of the source.
# Legend:
# MC38 tumors = test: MC38 flank tumor model in human STING knock-in mice; type: in vivo, mouse; conditions: for Tumor Volume: 800ug intratumorally days 11, 14, 18, individual animals, listed as MGL844
# hSTING(R95A)-GFP = hSTING(R95A)-GFP (Homo sapiens, UniProt Q86WV6, R95A); test: STING translocation/aggregate (puncta) assay in HEK293T cells; type: cell-based; conditions: 50 μM, overnight
# Chain of hSTING(R95A)-GFP (Q86WV6 whole entry R95A): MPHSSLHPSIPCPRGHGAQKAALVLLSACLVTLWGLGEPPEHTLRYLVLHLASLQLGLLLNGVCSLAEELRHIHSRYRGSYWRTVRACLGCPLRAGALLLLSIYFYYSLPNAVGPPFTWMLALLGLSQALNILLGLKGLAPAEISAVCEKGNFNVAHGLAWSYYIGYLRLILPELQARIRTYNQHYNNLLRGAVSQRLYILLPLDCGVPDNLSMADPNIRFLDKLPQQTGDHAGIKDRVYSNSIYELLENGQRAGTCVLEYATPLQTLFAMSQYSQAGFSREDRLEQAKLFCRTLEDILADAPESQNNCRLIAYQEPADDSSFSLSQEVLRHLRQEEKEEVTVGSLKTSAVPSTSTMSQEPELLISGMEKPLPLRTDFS
# human STING R95A = human STING R95A (Homo sapiens, UniProt Q86WV6, R95A); test: ISRE reporter assay with STING co-transfection in HEK293T cells
# Chain of human STING R95A (Q86WV6 whole entry R95A): as above
# [1] = molecular target: hSTING(1–153)–mSTING(153–378) chimera (Homo sapiens, UniProt Q86WV6, A215V/A300E/A302V/A313V/A318T/A350V/D237N/D297E/D320G/E174G/E362R/E369D/G230I/G344N/H185L/H232R/I244V/K224M/K347M/K370Q/L189M/L202F/L222R/L247I/L333I/L346P/M214V/M357L/Q196R/Q276K/Q306R/R191S/R253P/S275A/S321N/S345A/S353P/T181M/T229N/T256V/T354P/T356V/V194G/V258I/V343M/V351A/Y182F/Y186H/Y274D); test: as above; type: cell-based, human/mouse; conditions: for ISRE reporter activity, mean: h(1-153)/m(153-378)STING
# Chain of hSTING(1–153)–mSTING(153–378) chimera (Q86WV6 with tags, fused parts or gaps with the stated changes): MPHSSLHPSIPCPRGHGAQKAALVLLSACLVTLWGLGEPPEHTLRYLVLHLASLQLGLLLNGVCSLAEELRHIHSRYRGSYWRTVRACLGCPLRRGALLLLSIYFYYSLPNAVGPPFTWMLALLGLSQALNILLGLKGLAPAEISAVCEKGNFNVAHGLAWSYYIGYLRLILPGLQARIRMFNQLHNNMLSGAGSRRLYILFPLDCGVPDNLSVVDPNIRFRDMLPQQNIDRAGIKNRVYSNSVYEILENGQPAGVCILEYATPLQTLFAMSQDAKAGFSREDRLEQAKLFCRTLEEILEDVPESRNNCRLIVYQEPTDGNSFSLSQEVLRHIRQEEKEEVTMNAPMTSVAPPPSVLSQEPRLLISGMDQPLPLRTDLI
# IFN-γ = IFN-γ level 6 h after intratumoral injection (MSD); type: in vivo, mouse; conditions: for IFNg: 6 hours post-dosing, B16-SIY, hSTING KI mice, individual animals
# human STING Y240C = human STING Y240C (Homo sapiens, UniProt Q86WV6, Y240C); test: ISRE reporter assay with STING co-transfection in HEK293T cells
# Chain of human STING Y240C (Q86WV6 whole entry Y240C): as the sequence (Q86WV6 whole entry R95A) above, with A95R, Y240C counted along it
# human STING R238A = human STING R238A (Homo sapiens, UniProt Q86WV6, R238A); test: as above; conditions: for ISRE reporter activity, mean: STING R238A
# Chain of human STING R238A (Q86WV6 whole entry R238A): as the sequence (Q86WV6 whole entry R95A) above, with A95R, R238A counted along it
# human STING L98A = human STING L98A (Homo sapiens, UniProt Q86WV6, L98A); test: as above
# Chain of human STING L98A (Q86WV6 whole entry L98A): as the sequence (Q86WV6 whole entry R95A) above, with A95R, L98A counted along it
# mouse STING = molecular target: T1, mouse STING (Mus musculus, UniProt Q3TBT3); test: as above; type: cell-based
# T1 sequence (Q3TBT3 1-378): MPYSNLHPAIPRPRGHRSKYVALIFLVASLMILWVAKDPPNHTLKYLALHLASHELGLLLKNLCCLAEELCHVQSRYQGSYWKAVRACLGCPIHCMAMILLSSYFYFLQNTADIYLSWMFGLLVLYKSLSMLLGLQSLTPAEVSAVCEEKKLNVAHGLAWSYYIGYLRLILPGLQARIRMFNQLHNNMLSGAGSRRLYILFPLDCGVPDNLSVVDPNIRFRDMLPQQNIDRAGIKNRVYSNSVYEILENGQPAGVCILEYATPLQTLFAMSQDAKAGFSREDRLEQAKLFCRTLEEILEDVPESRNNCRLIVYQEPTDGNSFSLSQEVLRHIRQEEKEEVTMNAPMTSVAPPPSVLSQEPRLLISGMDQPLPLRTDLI
# mSTING C95R = molecular target: T2, mSTING C95R (Mus musculus, UniProt Q3TBT3, C95R); test: as above
# T2 sequence (Q3TBT3 1-378 C95R): T1 sequence (Q3TBT3 1-378) with C95R
# [2] = intratumoral, days 11, 14 and 18
smiles,measurement,setting,value
COc1cc(C(=O)O)ccc1NCc1ccc(C2(C(C)(C)C)OCC(C)(C)CO2)cc1 [NVS-STG2],Tumor Volume,MC38 tumors; day 10 post implant (before dosing),24.276 mm3 and 31.79 mm3 and 33.2145 mm3 and 35.594 mm3 and 59.168 mm3 and 64.512 mm3 and 74.431 mm3 and 81.466 mm3 and 88.36 mm3
same,Tumor Volume,MC38 tumors; day 13 post implant,23.275 mm3 and 45.6 mm3 and 74.925 mm3 and 56.074 mm3 and 80 mm3 and 91.936 mm3 and 95.648 mm3 and 133.28 mm3 and 139.707 mm3
same,Tumor Volume,MC38 tumors; day 17 post implant,23.04 mm3 and 36.414 mm3 and 64 mm3 and 34.2225 mm3 and 103.933 mm3 and 63.36 mm3 and 159.359 mm3 and 161.863 mm3 and 433.026 mm3
same,Tumor Volume,MC38 tumors; day 20 post implant,22.869 mm3 and 51.2 mm3 and 79.35 mm3 and 50.336 mm3 and 114.92 mm3 and 64.512 mm3 and 236.927 mm3 and 137.641 mm3 and 854.024 mm3
same,Tumor Volume,MC38 tumors; day 25 post implant,19.2 mm3 and 213.4 mm3 and 75.5 mm3 and 32 mm3 and 106.3 mm3 and 28.3 mm3 and 491.7 mm3 and 148.2 mm3
same,Tumor Volume,MC38 tumors; day 28 post implant,14.4 mm3 and 499.6 mm3 and 105 mm3 and 45.5 mm3 and 173.2 mm3 and 59.7 mm3 and 259.5 mm3
same,Tumor Volume,MC38 tumors; day 31 post implant,12.9 mm3 and 87.7 mm3 and 40 mm3 and 257.7 mm3 and 74.1 mm3 and 418.1 mm3
same,Tumor Volume,MC38 tumors; day 33 post implant,6.5 mm3 and 126 mm3 and 55.7 mm3 and 399.2 mm3 and 98.3 mm3 and 556.3 mm3
same,mice with no tumor growth during the 33-day experimental period,MC38 tumors; [2],4 out of 9
same,tumor growth in words,MC38 tumors; [2],slowed tumor growth significantly
same,puncta-like structure formation in words,hSTING(R95A)-GFP,lost the ability to form puncta-like structures
same,STING activation in words,human STING R95A,various degrees of reduction; also recorded: essentially irresponsive
same,"ISRE reporter activity, mean",[1]; Log[μM] 0.2,5.4
same,"ISRE reporter activity, mean",[1]; Log[μM] 0.5,12
same,"ISRE reporter activity, mean",[1]; Log[μM] 0.8,17.4
same,"ISRE reporter activity, mean",[1]; Log[μM] 1.1,24.2
same,"ISRE reporter activity, mean",[1]; Log[μM] 1.4,26.3
same,"ISRE reporter activity, mean",[1]; Log[μM] -0.1,2.6
same,"ISRE reporter activity, mean",[1]; Log[μM] -0.4,1.4
same,"ISRE reporter activity, mean",[1]; Log[μM] -0.7,0.8
same,"ISRE reporter activity, mean",[1]; Log[μM] -1,0.7
same,"ISRE reporter activity, mean",[1]; Log[μM] -1.3,0.7
same,STING activation in words,[1]; hSTING TMD–mSTING LBD chimera,induced significant activation
same,IFNg,IFN-γ; 400μg intratumorally,39.4953 pg/mL and 46.0042 pg/mL and 12.5471 pg/mL and 24.0798 pg/mL and 11.9723 pg/mL and 24.0458 pg/mL and 11.7115 pg/mL and 37.7 pg/mL and 31.9987 pg/mL
same,IFNg,IFN-γ; 800μg intratumorally,69.5013 pg/mL and 56.155 pg/mL and 39.6205 pg/mL and 20.7743 pg/mL and 42.9846 pg/mL and 43.1066 pg/mL and 31.0552 pg/mL and 38.6876 pg/mL and 47.5545 pg/mL
same,plasma IFNγ level in words,IFN-γ; 6-hour post dosing,significant increase of plasma IFNγ level
same,STING activation in words,human STING Y240C,maintained full agonist activity
same,STING activation in words,human STING R238A; R238A,maintained full agonist activity
same,"ISRE reporter activity, mean",human STING R238A; Log[μM] 0.267606,22.8148
same,"ISRE reporter activity, mean",human STING R238A; Log[μM] 0.744728,30.7761
same,"ISRE reporter activity, mean",human STING R238A; Log[μM] 1.22185,19.5642
same,"ISRE reporter activity, mean",human STING R238A; Log[μM] 1.69897,5.793
same,"ISRE reporter activity, mean",human STING R238A; Log[μM] -0.209515,16.4448
same,"ISRE reporter activity, mean",human STING R238A; Log[μM] -0.686637,8.4
same,"ISRE reporter activity, mean",human STING R238A; Log[μM] -1.16376,4.954
same,"ISRE reporter activity, mean",human STING R238A; Log[μM] -4.30103,2.802
same,STING activation in words,human STING L98A,various degrees of reduction
same,"ISRE reporter activity, mean","mouse STING; mSTING WT, Log[μM] 0.3, Figure S1g",-5.609
same,"ISRE reporter activity, mean","mouse STING; mSTING WT, Log[μM] 1, Figure S1g",-12.1937
same,"ISRE reporter activity, mean","mouse STING; mSTING WT, Log[μM] 1.7, Figure S1g",-31.614
same,"ISRE reporter activity, mean","mouse STING; mSTING WT, Log[μM] -0.4, Figure S1g",-7.536
same,"ISRE reporter activity, mean","mouse STING; mSTING WT, Log[μM] -1.1, Figure S1g",-5.586
same,"ISRE reporter activity, mean","mouse STING; mSTING WT, Log[μM] -1.8, Figure S1g",-3.154
same,"ISRE reporter activity, mean","mouse STING; mSTING, Log[μM] 0.2",0.9
same,"ISRE reporter activity, mean","mouse STING; mSTING, Log[μM] 0.5",1
same,"ISRE reporter activity, mean","mouse STING; mSTING, Log[μM] 0.8",1.1
same,"ISRE reporter activity, mean","mouse STING; mSTING, Log[μM] 1.1",0.8
same,"ISRE reporter activity, mean","mouse STING; mSTING, Log[μM] 1.4",0.9
same,"ISRE reporter activity, mean","mouse STING; mSTING, Log[μM] -0.1",0.9
same,"ISRE reporter activity, mean","mouse STING; mSTING, Log[μM] -0.4",1.1
same,"ISRE reporter activity, mean","mouse STING; mSTING, Log[μM] -0.7",1
same,"ISRE reporter activity, mean","mouse STING; mSTING, Log[μM] -1",1
same,STING activation in words,mSTING C95R,unable to restore the activity
same,"ISRE reporter activity, mean","mSTING C95R; Log[μM] 0.3, Figure S1g",-9.8647
same,"ISRE reporter activity, mean","mSTING C95R; Log[μM] 1, Figure S1g",-24.0951
same,"ISRE reporter activity, mean","mSTING C95R; Log[μM] 1.7, Figure S1g",-51.7859
same,"ISRE reporter activity, mean","mSTING C95R; Log[μM] -0.4, Figure S1g",-3.941
same,"ISRE reporter activity, mean","mSTING C95R; Log[μM] -1.1, Figure S1g",-6.421
same,"ISRE reporter activity, mean","mSTING C95R; Log[μM] -1.8, Figure S1g",-3.26
